# Laboratory results as given in patent EP0038117A1, “Methods for preparing anti-hypertensive agents” (UNIVERSITY OF MIAMI, priority 1980, dated 1981).
# Assay: Stability of aqueous solution on standing under ambient conditions (loss of inhibitory activity)
# Type: physicochemical
# Conditions: 1 mg per ml, pH of about 8, standing for as little as 30 minutes
structure (smiles),measurement,value
"C[C@H](CS)C(=O)N1CCC[C@H]1C(=O)O [SQ14225, D-3-mercapto-2-methylpropanoyl-L-proline]",activity of fresh aqueous solution upon standing,substantially less active
